Data taken from EP0618207B1, “Substituted pyridopyrimidines as antihypertensives” (AMERICAN HOME PRODUCTS CORPORATION, priority 1993, dated 1994).

Legend:
A II-infused rat model = assay: A II-infused rat model, antihypertensive action; type: in vivo, Rats; details: 3 mg/kg id, four hours post-administration
Experimental: In accordance with their ability to antagonize angiotensin II, the compounds of this invention show antihypertensive action in the following A II-infused rat model. Rats are anesthetized with Dial-Urethane (0.60 mL/kg, ip) and the trachea cannulated with PE 240. Either one femoral artery and both femoral veins or the carotid artery and the corresponding jugular vein are cannulated with PE 50. If the jugular vein is cannulated, two cannulas are placed in the one vein. The initial portion of the duodenum (just distal to the stomach) is cannulated with PE 50 via a small midline incision. Arterial pressure and heart rate are measured from the arterial cannula. Ten to 15 min are allowed following surgery for stabilization of arterial pressure. Ganglion blockade is then produced by intravenous administration of mecamylamine at 3 mg/kg (1 mL/kg of a 3 mg/mL solution). Ganglion blockade causes a fall in arterial pressure of about 50 mmHg. Mecamylamine is given every 90 min throughout the remainder of the experiment. An A II infusion is then begun into the other venous cannula at 0.25 µg/kg/min (at 9.6 µL/min). The A II infusion returns arterial pressure to or slightly above the control level. Once arterial pressure has stabilized with the A II infusion, baseline values for mean arterial pressure (MAP) and heart rate are taken. […]

[1] = metabolic studies in rats; type: in vivo
[2] = test system: Goldblatt (2K-1C) hypertensive rat model; assay: Goldblatt (2K-1C) hypertensive rat model, antihypertensive action; type: in vivo, Sprague-Dawley rats
Experimental: In further accordance with their ability to antagonize angiotensin II, the compounds of this invention show antihypertensive action in the following Goldblatt (2K-1C) hypertensive rat model. Sprague-Dawley rats weighing 150 g were anesthetized with pentobarbital (50 mg/kg ip) and the left renal artery was clipped with a silver wire bent to an internal diameter of 0.2 mm. The hypertension was established 4-7 weeks after clipping. At that time, the animals were anesthetized with pentobarbital (50 mg/kg ip) and the right carotid artery was cannulated. The catheter was passed subcutaneously to the dorsal side of the neck and exteriorized. The animals were fasted overnight but allowed access to water and the experiment was performed the next morning. The carotid catheter was connected to a blood pressure transducer which was linked to a MI^2 computer data acquisition system or to a Grass or Beckman recorder for the recording of mean arterial pressure (MAP) and heart rate. For oral administration, the rats were given either a compound of the invention (1, 3 or 10 mg/kg), losartan (30 mg/kg) as a standard or vehicle (0.5% methyl cellulose in distilled water) by gastric gavage (ig) in a volume of 5 mL/kg. For intravenous administration, the rats were given either a compound of the invention (0.03, 0.1, 1, 3 or 10 mg/kg) or vehicle (≦50% NaHCO3 in distilled water) in a volume of 1 mL/kg. In all experiments, saline was infused into the arterial cannula at 5 µL/min throughout the experiment to maintain patency of the cannula. Each compound was administered to a separate group of 6-12 rats and MAP and heart rate were recorded for 24 h. […] At each time point following dosing, averages were determined for absolute MAP, change in MAP (in mm Hg), and heart rate for all animals, and the standard error of the mean was calculated.

| Compound | lowered the A II dependent blood pressure by an average of (A II-infused rat model) | identified as metabolite of the compound of Example 3 of U.S. Patent No. 5,149,599 [1] | presence of metabolite (duration and amount), Example 4 compared with Example 6 [1] | maximum decrease in MAP ([2]; 0.1 mg/kg iv, 4 hours post-administration) | maximum decrease in MAP ([2]; 10 mg/kg ig, 23 hours post-administration) | maximum decrease in MAP ([2]; 10 mg/kg ig, 9 hours post-administration) |
| --- | --- | --- | --- | --- | --- | --- |
| Cc1nc(CO)nc2c1CCC(=O)N2Cc1ccc(-c2ccccc2-c2nnn[nH]2)cc1 [Example 2, 2-Hydroxymethyl-4-methyl-8-[2'-(1H-tetrazol-5-yl)biphenyl-4-ylmethyl]-5,8-dihydro-6H-pyrido[2,3-d]pyrimidin-7-one] | 30% |  |  |  |  |  |
| Cc1nc(C)c2c(O)cc(=O)n(Cc3ccc(-c4ccccc4-c4nnn[nH]4)cc3)c2n1 [Example 4, 2,4-Dimethyl-5-hydroxy-8-[2'-(1H-tetrazol-5-yl)biphenyl-4-ylmethyl]-8H-pyrido[2,3-d]pyrimidin-7-one Sesquihydrate] |  | significant metabolites | present significantly longer and in greater amounts than the latter | 67 mm Hg | 66 mm Hg |  |
| Cc1nc(C)c2c(n1)N(Cc1ccc(-c3ccccc3-c3nn[nH]n3)cc1)C(=O)CC2O (stereo not shown) [Example 6, 5-Hydroxy-2,4-dimethyl-8-[2'-(1H-tetrazol-5-yl)-biphenyl-4-ylmethyl]-6,8-dihydro-5H-pyrido[2,3-d]pyrimidine-7-one Hydrate 0.4 Etherate] |  | significant metabolites |  |  |  | 71 mm Hg |
